Entries after “also recorded” stand apart in the source; their conditions may differ.
Key:
RKO cells = test: RKO cell colony formation assay (oligonucleotides); type: cell-based; details: 5 μM oligonucleotide for 24 hours; versus M3 control (FIG. 30)
Text: Another strategy is to use oligonucleotides to block the interaction between RBM38 and the 3′ untranslated region (UTR) of p53 in order to modulate p53 translation (FIG. 26). To this end, a region of the p53 3′ UTR where RBM38 interacts (FIG. 27) was identified (SEQ ID NO:15) and several oligonucleotides having complementarity to this sequence (e.g., SEQ ID NOS:16-21) were designed.

p53 [1] = test: Western blot for p53 in MCF7 cells treated with oligonucleotides; type: cell-based, human; details: MCF7 cells; oligonucleotide 50 nM; 24 hours (FIG. 2)
[2] = tested on: MIA-PaCa-2 pancreatic cancer cells; test: MIA-PaCa-2 cell colony formation assay (peptides); type: cell-based, human; details: complexes of peptide and PEP1 (FIG. 18)
Text: […] […] After colonies formed they were fixed (i.e., using 7:1 MeOH:glacial acetic acid) and stained with crystal violet.

U20S = U20S cell colony formation assay (FIG. 18); type: cell-based, human; details: complexes of peptide and PEP1 (FIG. 18)
[3] = tested on: tumor cell colony formation; test: Tumor cell colony formation assay, cell line not stated (FIGS. 13C, 20D); type: cell-based; details: complexes with PEP1 (FIG. 13C)
p53 [4] = test: Western blot for p53 and downstream targets in RKO cells treated with peptides; type: cell-based, human; details: RKO cells; for p53 expression (Western blot): 300 nM peptide with 6 μM PEP1, 24 hours (FIG. 31A); for p53 and p21 expression after low-dose doxorubicin treatment (Western blot) / p53 protein expression compared to Pep8 (Western blot): 375 nM peptide with 7.5 μM PEP1; for p53 and p21 expression after low-dose doxorubicin treatment (Western blot): 6.25 ng/mL doxorubicin 18 hours (FIG. 34G); for expression of p53 and downstream targets with low-dose doxorubicin (Western blot): complexes of CPPs and peptide plus doxorubicin 6.25 ng/mL (FIG. 19A); for expression of p53 (Western blot): peptide complexed with PEP1 (FIG. 13A); for p53 protein expression compared to Pep8 (Western blot): 18 hours (FIG. 37A)
p53 [5] = test: Western blot for p53 and downstream targets in MCF7 cells treated with peptides; type: cell-based, human; details: for p53 expression (Western blot) / protein expression of p53 and downstream targets p21 and MDM2 (Western blot) / p53 and p21 expression after low-dose doxorubicin treatment (Western blot) / doxorubicin-mediated p53 and p21 upregulation (Western blot) / expression of p53 and downstream targets with low-dose doxorubicin (Western blot) / expression of p53 and downstream targets p21 and MDM2 (Western blot): MCF7 cells; for p53 expression (Western blot): 300 nM peptide with 6 μM PEP1, 24 hours (FIG. 31B); for protein expression of p53 and downstream targets p21 and MDM2 (Western blot): 300 nM peptide with 6 μg PEP1 (20:1 PEP1 to peptide), 18 hours (FIG. 1A); for p53 and p21 expression after low-dose doxorubicin treatment (Western blot): 375 nM peptide with 7.5 μM PEP1, 6.25 ng/mL doxorubicin 18 hours (FIG. 34H); for doxorubicin-mediated p53 and p21 upregulation (Western blot): 375 nM peptide with (20:1) plus 6.25 ng/mL doxorubicin, 18 hours (FIG. 1C); for expression of p53 and downstream targets with low-dose doxorubicin (Western blot): complexes of CPPs and peptide plus doxorubicin 6.25 ng/mL (FIG. 19B); for expression of p53 and downstream targets p21 and MDM2 (Western blot): complexes with PEP1 (FIG. 13B)
MCF7 cells = test: MCF7 cell colony formation assay (peptides); type: cell-based, human; details: for MCF7 cell colony formation: 375 nM peptide with 7.5 μg PEP1 (20:1) (FIG. 1B); for inhibition of colony formation by low-dose doxorubicin: MCF7 cells, 375 nM peptide with 7.5 μg PEP1 (20:1) plus 3.125 ng/mL doxorubicin (FIG. 1D); for colony formation in MCF7 cells: complexes of peptide and PEP1 (FIG. 18)
Method: In order to test the effect of the RBM38 and eIF4E peptides on cancer cell colony formation, MCF7 cells were seeded in 6-well plates at a density of 1×10^3 cells per well. The following day, cells were treated with peptides. In order to form stable complexes with PEP1, 100 μl of serum-free DMEM was added to individual Eppendorf tubes. Control (SEQ ID NO:11), RBM38, and eIF4E peptides were added at a concentration of 375 nM and then 7.5 μg of PEP1 was added to each peptide (20:1). The complexes were incubated for 20 minutes at room temperature and then added dropwise to cells. Cell media was changed every three days until colonies were visible. The cells were fixed and then stained with crystal violet.
In order to test the effect of a combination treatment comprising peptides of the present invention and a chemotherapeutic agent on cancer cell colony formation, MCF7 cells were seeded in 6-well plates at a density of 1×10^3 cells per well. The following day, cells were treated with peptides. In order to form stable complexes with PEP1, 100 μL of serum-free DMEM was added to individual Eppendorf tubes. Control, RBM38, eIF4E, and peptide-8 peptides were added at a concentration of 375 nM and then 7.5 μg of PEP1 was added to each peptide (20:1). The complexes were incubated for 20 minutes at room temperature and then added dropwise to cells. 20 minutes after addition of peptide complexes, 3.125 ng/mL doxorubicin was added to the cells. Cell media was changed every three days until colonies were visible. The cells were fixed and then stained with crystal violet.
For the experiments shown in FIG. 34C, MCF7 cells were seeded on a 6-well plate at a seed density of 1×10^3 cells per well. The following day the cells were treated with 5 μM Pen-Ctrl or 5 μM Pen-Pep23. The following day, 6.25 ng/mL doxorubicin was added to the cells for 48 hours. Subsequently, the cell media was changed every 3 days until colonies were visible. The cells were fixed and stained with crystal violet.

## AAAAAAAAAAAAAAAAAA (listed as DNA, chemistry not given here) [15A]
RKO cells
  RKO tumor cell colony formation: inhibited RKO tumor cell colony formation after 24 hours more than the M3 control oligonucleotide did
p53 [1]
  level of p53 (Western blot): level of p53 was increased

## AAAAAAGAAAAAAAA (chemistry not given here) [14A/G]
RKO cells
  RKO tumor cell colony formation: inhibited RKO tumor cell colony formation after 24 hours more than the M3 control oligonucleotide did
p53 [1]
  level of p53 (Western blot): level of p53 was increased

## AAAGAAAAAAGAAAA (listed as DNA, chemistry not given here) [18T-AS-15]
p53 [1]
  level of p53 (Western blot): level of p53 was increased

## AAAGAAAAAAGAAAAAAAA (listed as DNA, chemistry not given here) [18T-AS-19]
p53 [1]
  level of p53 (Western blot): level of p53 was increased

## AAAGAAAAAAGAAAAAAAAAAAAAAAAAA (listed as DNA, chemistry not given here) [18T-AS-29]
p53 [1]
  level of p53 (Western blot): level of p53 was increased

## AAAGAAAAAAGAAAAAAAAAAAAAAAAAAGAAAAAGAA (listed as DNA, chemistry not given here) [18T-AS]
p53 [1]
  level of p53 (Western blot): level of p53 was increased

## IGYQSHADTATKSGSTTKNRFVV [eIF4E]
[2]
  colony formation in MIA-PaCa-2 pancreatic cancer cells: inhibited colony formation
U20S
  colony formation in U20S cells: inhibited colony formation
[3]
  tumor cell colony formation: successful at inhibiting tumor cell colony formation
p53 [4]
  p53 expression (Western blot): able to increase p53 expression
  p53 and p21 expression after low-dose doxorubicin treatment (Western blot): further increased p53 and p21 expression
  expression of p53 and downstream targets with low-dose doxorubicin (Western blot): increased the expression of p53 and downstream targets
  expression of p53 (Western blot): expression of p53 was increased relative to controls
p53 [5]
  p53 expression (Western blot): able to increase p53 expression
  protein expression of p53 and downstream targets p21 and MDM2 (Western blot): increased protein expression of p53 and the downstream targets p21 and mouse double minute 2 homolog (MDM2); also recorded: increasing p53 protein levels; also recorded: induced p53 and downstream targets p21 and MDM2
  p53 and p21 expression after low-dose doxorubicin treatment (Western blot): further increased p53 and p21 expression
  doxorubicin-mediated p53 and p21 upregulation (Western blot): enhanced the effect of doxorubicin-mediated p53 and p21 upregulation; also recorded: able to enhance the induction of p53 and p21
  expression of p53 and downstream targets with low-dose doxorubicin (Western blot): increased the expression of p53 and downstream targets
  expression of p53 and downstream targets p21 and MDM2 (Western blot): expression of p53 and downstream targets p21 and MDM2 was increased
MCF7 cells
  MCF7 cell colony formation: able to inhibit MCF7 cell colony formation; also recorded: able to suppress colony formation of MCF7 breast cancer cells; also recorded: decreased colony formation
  inhibition of colony formation by low-dose doxorubicin: enhanced the inhibition of colony formation by low-dose doxorubicin; also recorded: led to decreased colony formation
  colony formation in MCF7 cells: inhibited colony formation

## QYPPATYDQYPYAASPATAASFVGYSYPAAVPQALSAAAP [RBM38]
[3]
  tumor cell colony formation: successful at inhibiting tumor cell colony formation
p53 [4]
  p53 expression (Western blot): able to increase p53 expression
  p53 and p21 expression after low-dose doxorubicin treatment (Western blot): further increased p53 and p21 expression
  expression of p53 and downstream targets with low-dose doxorubicin (Western blot): increased the expression of p53 and downstream targets
  expression of p53 (Western blot): expression of p53 was increased relative to controls
p53 [5]
  p53 expression (Western blot): able to increase p53 expression
  protein expression of p53 and downstream targets p21 and MDM2 (Western blot): increased protein expression of p53 and the downstream targets p21 and mouse double minute 2 homolog (MDM2); also recorded: increasing p53 protein levels; also recorded: induced p53 and downstream targets p21 and MDM2
  p53 and p21 expression after low-dose doxorubicin treatment (Western blot): further increased p53 and p21 expression
  doxorubicin-mediated p53 and p21 upregulation (Western blot): enhanced the effect of doxorubicin-mediated p53 and p21 upregulation; also recorded: able to enhance the induction of p53 and p21
  expression of p53 and downstream targets with low-dose doxorubicin (Western blot): increased the expression of p53 and downstream targets
  expression of p53 and downstream targets p21 and MDM2 (Western blot): expression of p53 and downstream targets p21 and MDM2 was increased
MCF7 cells
  MCF7 cell colony formation: able to inhibit MCF7 cell colony formation; also recorded: able to suppress colony formation of MCF7 breast cancer cells; also recorded: decreased colony formation
  inhibition of colony formation by low-dose doxorubicin: enhanced the inhibition of colony formation by low-dose doxorubicin

## YPYAAKPA [Pep8-SK, Pep8 mutant]
p53 [4]
  p53 protein expression compared to Pep8 (Western blot): stronger ability to induce p53 protein expression compared to Pep8

## YPYAARPA [Pep8-SR, Pep8 mutant]
p53 [4]
  p53 protein expression compared to Pep8 (Western blot): stronger ability to induce p53 protein expression compared to Pep8

## YPYAASPA [peptide-8]
[2]
  colony formation in MIA-PaCa-2 pancreatic cancer cells: inhibited colony formation
U20S
  colony formation in U20S cells: inhibited colony formation
p53 [4]; 50 nM peptide with 1 μM PEP1, 18 hours (FIG. 32A)
  p53 protein levels (Western blot): could induce p53 protein levels
p53 [4]
  p53 and p21 expression after low-dose doxorubicin treatment (Western blot): further increased p53 and p21 expression
  expression of p53 and downstream targets with low-dose doxorubicin (Western blot): increased the expression of p53 and downstream targets
p53 [5]; MCF7 cells 375 nM, 50 nM or 150 nM, RKO cells 150 nM (FIG. 16)
  induction of p53 (Western blot): stronger induction of p53 than the longer RBM38 and eIF4E peptides; also recorded: increases p53 expression
p53 [5]
  p53 and p21 expression after low-dose doxorubicin treatment (Western blot): further increased p53 and p21 expression
  doxorubicin-mediated p53 and p21 upregulation (Western blot): enhanced the effect of doxorubicin-mediated p53 and p21 upregulation; also recorded: able to enhance the induction of p53 and p21
  expression of p53 and downstream targets with low-dose doxorubicin (Western blot): increased the expression of p53 and downstream targets
MCF7 cells
  inhibition of colony formation by low-dose doxorubicin: enhanced the inhibition of colony formation by low-dose doxorubicin; also recorded: led to decreased colony formation
  colony formation in MCF7 cells: inhibited colony formation

Source: patent publication US11505574B2, “Modulation of P53 for the treatment of cancer” (THE REGENTS OF THE UNIVERSITY OF CALIFORNIA, priority 2016, dated 2022)
